Experimental findings from PMC7076013 (Scientific Reports, 2020) are described below.

Series [1] relates to A375, human melanoma. Kind of series: CV (crystal violet) cell viability, A375. The class given is cell-based. The settings on record: for IC50: 48 h; for Selectivity index A375: IC50 macrophages / IC50 cancer. On the procedure:
(§1) Both melanoma and colon cancer are tumor types tightly connected with inflammation, while the expression of COX-2 in the selected cell lines was highly variable. Since a lot of discrepancies were found in the literature concerning the expression of this enzyme[5],[48]–[53], both COX-1 and COX-2 expression was analyzed by Western blot. […] The cells were treated with a wide range of doses of 4a–c, 5, and 6 for 48 h and cell viability was determined by MTT (3-(4,5-dimethylthiazol-2-yl)-2,5-diphenyltetrazolium bromide) and CV (crystal violet) assays. The obtained IC50 values were similar for both assays (Table 1).
(§2) Reagents were obtained from Sigma (St. Louis, MO) unless indicated otherwise. Annexin V - FITC (AnnV) was acquired from Biotium (Hayward, CA) and Apostat from R&D (R&D S ystems, Minneapolis, MN USA). […] After being detached b y tr ypsinization, cells were seeded in defined number as follows: 2.5 × 10^3 cells/well in 96-well plates for viability assessment and 2 × 10^4 cells/well in 24-well plates for flow cytometry. Peritoneal resident […]
(§3) for Biolo gical Research “Siniša Stanković” b y peritoneal lav age with an ice- cold phosphate buffer solution (PBS). The handling of animals and protocol for obtaining cells is in agreement with the rules of the European Union and approved by the Institutional Animal Care and Use Committee at IBISS (02- 09/1 6). Cells were counted and seeded in 96-well plates and incubat ed overnight. Before treatment, non- adherent cells were removed. Compounds 4a- c, 5 and 6 were dissolved in DMSO and stored at −20 °C for a m onth. Working solutions were freshl y prepared in 10% FCS-RPMI-1640. Controls were treated with culture medium containing the equivalent […]
(§4) 3.2. Cell viability tests.
(§5) The number of viable cel ls in culture was estimated by the MTT (3-(4,5- dimethylthiazol- 2-yl ) - 2,5- diphenyltetrazolium bromide) and CV (crystal violet) tests. Cells were incubated in the presence of compounds 4a- c, 5 and 6 for 48 h, then the viability was measured as described.4 […]
(§6) The results were ex pressed as a p er centage of a v alue obtained for the untr eated control cells that was arbitrarily set to be 100%. A non- linear regression analysis of obtained results was done b y using Gr aphPad Prism software to calculat e IC50 values. […]

In series [2] the test system is SW480, human colon carcinoma. The experiment in a line: MTT cell viability, SW480. Particulars: 48 h. Format: cell-based. The method, then: as §1
(§7) Reagents were obtained from Sigma (St. Louis, MO) unless indicated otherwise. […]
(§8) S ystems, Minneapolis, MN USA). […] After being detached b y tr ypsinization, cells were seeded in defined number as follows: 2.5 × 10^3 cells/well in 96-well plates for viability assessment and 2 × 10^4 cells/well in 24-well plates for flow cytometry. […]
(§9) Before treatment, non- adherent cells were removed. Compounds 4a- c, 5 and 6 were dissolved in DMSO and stored at −20 °C for a m onth. Working solutions were freshl y prepared in 10% FCS-RPMI-1640. Controls were treated with culture medium containing the equivalent […]
as §4, §5, §6

Series [3] relates to 518A2, human melanoma. Kind of series: CV (crystal violet) cell viability, 518A2. The class given is cell-based. Particulars: for IC50: 48 h; for Selectivity index 518A2: IC50 macrophages / IC50 cancer. The method, then:
as §1, §2, §3, §4, §5, §6

The test system of series [4] is peritoneal resident macrophages. Kind of series: CV cytotoxicity for isolated macrophages. The settings on record: crystal violet (CV) test. Format: cell-based, C57BL/6 mice. On the procedure: as §2, §3, §4, §5, §6
14 Ligand molecules and one […]
protocol published earlier.16
Cell line Selectivity index

Series [5] concerns B16, mouse solid melanoma. Kind of series: CV (crystal violet) cell viability, B16. The class given is cell-based. Particulars: for IC50: 48 h; for Selectivity index B16: IC50 macrophages / IC50 cancer. On the procedure:
as §1, §2, §3, §4, §5, §6

Series [6] concerns B16F10, mouse metastatic melanoma. The experiment in a line: MTT cell viability, B16F10. Format: cell-based. The settings on record: 48 h. On the procedure:
as §1
(§10) Reagents were obtained from Sigma (St. Louis, MO) unless indicated otherwise. Annexin V - FITC (AnnV) was acquired from Biotium (Hayward, CA) and Apostat from R&D (R&D S ystems, Minneapolis, MN USA). […] After being detached b y tr ypsinization, cells were seeded in defined number as follows: 2.5 × 10^3 cells/well in 96-well plates for viability assessment and 2 × 10^4 cells/well in 24-well plates for flow cytometry. […]
(§11) Committee at IBISS (02- 09/1 6). Cells were counted and seeded in 96-well plates and incubat ed overnight. Before treatment, non- adherent cells were removed. Compounds 4a- c, 5 and 6 were dissolved in DMSO and stored at −20 °C for a m onth. Working solutions were freshl y prepared in 10% FCS-RPMI-1640. Controls were treated with culture medium containing the equivalent […]
as §4, §5, §6

Series [7] relates to SW480, human colon carcinoma. Kind of series: CV (crystal violet) cell viability, SW480. The class given is cell-based. The settings on record: for IC50: 48 h; for Selectivity index SW480: IC50 macrophages / IC50 cancer. On the procedure: as §1, §7
S ystems, Minneapolis, MN USA). […] After being detached b y tr ypsinization, cells were seeded in defined number as follows: 2.5 × 10^3 cells/well in 96-well plates for viability assessment and 2 × 10^4 cells/well in 24-well plates for flow cytometry. Peritoneal resident […]
as §3, §4, §5, §6

For series [8], the system named is A375, human melanoma. The experiment in a line: MTT cell viability, A375. The class given is cell-based. The settings on record: 48 h. The method, then: as §1, §10, §11, §4, §5, §6
In series [9] the test system is 518A2, human melanoma. The experiment in a line: MTT cell viability, 518A2. The settings on record: 48 h. Format: cell-based. On the procedure:
as §1, §10, §11, §4, §5, §6

For series [10], the system named is CT26CL25, mouse colon carcinoma. Kind of series: CV (crystal violet) cell viability, CT26CL25. The settings on record: for IC50: 48 h; for Selectivity index CT26CL25: IC50 macrophages / IC50 cancer. Format: cell-based. The method, then: as §1, §2, §3, §4, §5, §6
The subject of series [11] is SW620, human colon carcinoma. The experiment in a line: MTT cell viability, SW620. Format: cell-based. Particulars: 48 h. The method, then: as §1, §7, §8, §9, §4, §5, §6
The test system of series [12] is HCT116, human colon carcinoma. Kind of series: MTT cell viability, HCT116. The settings on record: 48 h. The class given is cell-based. On the procedure:
as §1, §10, §11, §4, §5, §6

For series [13], the system named is HCT116, human colon carcinoma. Kind of series: CV (crystal violet) cell viability, HCT116. Format: cell-based. The settings on record: for IC50: 48 h; for Selectivity index HCT116: IC50 macrophages / IC50 cancer. The method, then:
as §1, §2, §3, §4, §5, §6

Broadly, the IC50 is the concentration that inhibits the measured activity by half. Read a high IC50 as a need for much substance. In the case of “4-[4-(hydroxymethyl)phenyl]-3-(1,2-dicarba-closo-dodecaboranyl)furan-2(5H)-one [Compound 4c]”, the IC50 in series [1] was 10.5 ± 0.75 µM; in [2], 24.2 ± 1.05 µM; in series [3], 41.2 ± 2.12 µM; in series [4], 66.2 ± 1.91 µM; in series [5], 30.8 ± 3.22 µM; in series [6], 28 ± 2.62 µM. Moreover, the IC50 was found to be 26.8 ± 2.81 µM in [7]; 17.9 ± 1.26 µM in series [8]; 36.35 ± 0.21 µM in series [9]; 29.2 ± 2.86 µM in [10]; 35.7 ± 0.85 µM in series [11]; 22.2 ± 0.95 µM in series [12]. The substance also showed an IC50 in series [13] of 19.2 ± 1.46 µM. Further, in series [1], the “Selectivity index A375” value was 6.3. Also, the “Selectivity index 518A2” value in series [3] was found to be 1.6. For the same substance, the “Selectivity index B16” value in series [5] turned out to be 2.1. Besides, the “Selectivity index SW480” value in series [7] came to 2.5. Further, the “Selectivity index CT26CL25” value in [10] was found to be 2.3. In series [13], the “Selectivity index HCT116” value was 3.4.
Turning to “4-phenyl-3-(1,2-dicarba-closo-dodecaboranyl)furan-2(5 H)-one [Compound 4a]”, the IC50 stood at 16 ± 1.65 µM in series [1]; 22.8 ± 0.7 µM in series [2]; 21.4 ± 0.42 µM in series [3]; 48.8 ± 1.2 µM in [4]; 30.6 ± 3.86 µM in series [5]; 24.3 ± 2.01 µM in series [6]. The IC50 came to 19 ± 1.91 µM in [7]; 20.2 ± 1.26 µM in series [8]; 18.9 ± 1.63 µM in series [9]; 37.2 ± 2.21 µM in series [10]; 24.7 ± 0.42 µM in [11]; 13.5 µM in series [12]. For the same substance, in series [13], the IC50 is 12.8 ± 0.5 µM. Moreover, in series [1], the “Selectivity index A375” value was found to be 3.1. Also, the “Selectivity index 518A2” value in series [3] was found to be 2.3. In addition, the “Selectivity index B16” value in [5] came to 1.6. In series [7], the “Selectivity index SW480” value was 2.6. The “Selectivity index CT26CL25” value in [10] worked out at 1.3. Besides, the “Selectivity index HCT116” value in series [13] was 3.8.
Take “4-[4-(methylsulfonyl)phenyl]-3-(1,2-dicarba-closo-dodecaboranyl)furan-2(5H)-one [Compound 4b]”: the IC50 was found to be 14.1 ± 0.75 µM in series [1]; 42.5 µM in [2]; 14.8 ± 0.92 µM in series [3]; 65.7 ± 5.75 µM in series [4]; 22.2 ± 0.65 µM in [5]; 27.3 ± 2.82 µM in [6]. Moreover, the IC50 in series [7] amounted to 35.9 µM; in series [8] it was 16.9 ± 1.35 µM; in [9], 13.8 ± 0.21 µM; in [10], 36.1 ± 1.25 µM; in [11], 19.2 ± 0.78 µM; in [12] it was 42.5 ± 1.42 µM. This substance also gave an IC50 in [13] of 35.9 µM. For the same substance, in series [1], the “Selectivity index A375” value is reported as 4.7. Besides, the “Selectivity index 518A2” value in series [3] stood at 4.5. For the same substance, in series [5], the “Selectivity index B16” value is on record as 3.0. For the same substance, the “Selectivity index SW480” value in series [7] worked out at 1.8. In addition, the “Selectivity index CT26CL25” value in series [10] is 1.8. The “Selectivity index HCT116” value in series [13] stood at 1.8.
Take “4-[4-(methylnitrooxy)phenyl]-3-(1,2-dicarba-closo-dodecaboranyl)furan-2(5 H)-one [Compound 5]”: the IC50 in [1] worked out at 4.7 ± 0.3 µM; in [2], 16.6 ± 1.01 µM; in series [3], 5.5 ± 0.57 µM; in [4] it was 37.1 ± 1.73 µM; in [5] it was 11.5 ± 1.05 µM; in [6] it was 7.95 ± 3.06 µM. Further, the half-inhibitory concentration (IC50) in series [7] was determined as 8.6 ± 0.21 µM; in series [8] it was 4.25 ± 1.65 µM; in series [9], 5.15 ± 0.64 µM; in series [10] it was 29.4 ± 2.12 µM; in series [11] it was 10.5 ± 0.14 µM; in series [12], 8.9 µM. Further, the IC50 in [13] came out at 9.95 ± 0.95 µM. For the same substance, in [1], the “Selectivity index A375” value came out at 7.9. Further, in series [3], the “Selectivity index 518A2” value was determined as 6.7. The “Selectivity index B16” value in series [5] is on record as 3.2. Further, the “Selectivity index SW480” value in [7] came out at 4.3. The “Selectivity index CT26CL25” value in [10] was determined as 1.3. In series [13], the “Selectivity index HCT116” value is recorded as 3.7.
With “R,S-7-(2-oxo-4-(4-sulfamoylphenyl)-2,5-dihydrofuran-3-yl)-7,8-dicarba-nido-dodeca-hydroundecaborate(–1) sodium [Compound 6]”, the IC50 is over 50 µM in series [1]; over 50 µM in series [2]; 49.7 ± 0.42 µM in series [3]; over 50 µM in [5]; over 50 µM in series [6]; over 50 µM in [7]. Besides, the IC50 in series [8] was over 50 µM; in series [9], 36.9 ± 0.49 µM; in [10] it was over 50 µM; in series [11], over 50 µM; in series [12], over 50 µM; in series [13], over 50 µM.
